Values quoted from earlier work, collected in patent publication US20210008209A1, “COMBINATION THERAPY FOR TTR AMYLOIDOSIS” (Corino Therapeutics, Inc., priority 2018, published 2021).

Key:
TTR = biological target: T1, TTR (Homo sapiens, UniProt P02766)
T1 construct: host or cells: human plasma

TTR native tetramer [1] = conditions: mice
TTR native tetramer [2] = biological target: T2, TTR native tetramer (Homo sapiens, UniProt P02766); conditions: humans
T2 construct: host or cells: humans (in vivo)

- binding to TTR in human plasma (TTR): binds specifically to TTR
- stabilization of the native tetramer in vivo (TTR native tetramer [2]): stabilizes the native tetramer
Compound: Cc1ccc(C(=O)c2cc(O)c(O)c([N+](=O)[O-])c2)cc1 [Tolcapone, tolcapone]
- stabilization of the native tetramer in vivo (TTR native tetramer [1]): stabilizes the native tetramer
- TTR cytotoxicity (TTR cytotoxicity): inhibits TTR cytotoxicity
